Laboratory results: US10336792B2, “Antimicrobial peptide dendrimers” (priority 2014, dated 2019)
Converted amounts (≈) assume the structure as drawn. Positions of bridges follow the written chain, without caps; N, C: chain ends. Residues, ends and D or L forms follow the SMILES beside them. Groups on a side chain read outwards from the residue. Chains are numbered I, II in the order given. *: point of attachment. LeuLys(Leu) = CC(C)C[C@H](N)C(=O)NCCCC[C@H](NC(=O)[C@@H](N)CC(C)C)C(=O)*

Each compound was assayed on Pseudomonas aeruginosa (strain PA01) (assay: microbe, parasite or virus in culture). Details: strain.
Type: cell-based
Method: Antimicrobial activity was assayed against Bacillus subtilis (strain BR151), Escherichia coli (strain DH5α) and Pseudomonas aeruginosa (strain PA01). Microdilution broth method was used to determine the minimal inhibitory concentration (MIC). A colony of bacteria was grown in LB-medium overnight at 37° C. The concentration was quantified by measuring absorbance at 600 nm and diluted to OD600=0.1 (1×10^8 CFU/mL). The samples were prepared as stock solutions of 1 mg mL^−1 in H2O and diluted serially by ⅔ in nutrient LB in a 96-well microtiterplate (Cornstar, polypropylene, untreated). The sample solutions (50 μL) were mixed with the diluted bacterial suspension with an OD600 nm of 0.001 (50 μL). […] The plates were incubated at 37° C. until satisfactory growth (18-24 h). For each test, two columns of the plate were kept for sterility control (SC, broth only) and growth control (GC, broth with bacterial inoculums, no antibiotics). 10 μL of a solution of MTT (0.1% in H2O) was added to each well. The minimal inhibitory concentration (MIC) was defined as the lowest concentration of the antimicrobial substance (peptide dendrimer) that inhibited visible growth of the tested bacteria (yellow) with the unaided eye. For microbiological study the linear peptide LysTyrLysLysAlaLeuLysLysLeuAlaLysLeuLeu (SEQ ID No. 1) was used as reference.
All peptides were tested for their activity against P. aeruginosa PAO1 in a broth dilution assay (Wiegand, I. et al., 2008, Nat. Protoc., 3, 163-75; Clinical and Laboratory Standards Institute document M7-A7 7th Edition) to determine the MIC (minimal inhibitory concentration) values. The stock solutions of the peptide dendrimers were diluted serially by ⅔ in nutrient LB in 96-well microtiter plates. Bacteria were grown in nutrient LB overnight at 37° C. After dilution the bacteria were added to the peptides and incubated overnight (18-24 h) at 37° C. […] The position of the amino acids between the branching units seems to be optimal if the hydrophobic amino acid is the first counting from C-terminus and the charged one is on the second position. Introducing Ala as additional hydrophobic amino acid reduces activity (MSt-120). […] Also assembling charged or hydrophobic sections between the branching units leads to loss of activity whereas altering L-amino acids to D-amino acids maintains activity leading to the hypothesis that the mechanism of action should not be receptor mediated.

`CC(C)C[C@H](NC(=O)[C@H](CCCNC(=N)N)NC(=O)[C@H](CCCCNC(=O)[C@H](CC(C)C)NC(=O)[C@@H](N)CCCNC(=N)N)NC(=O)[C@H](CC(C)C)NC(=O)[C@@H](N)CCCNC(=N)N)C(=O)N[C@@H](CSSC[C@H](NC(=O)[C@H](CC(C)C)NC(=O)[C@H](CCCNC(=N)N)NC(=O)[C@H](CCCCNC(=O)[C@H](CC(C)C)NC(=O)[C@@H](N)CCCNC(=N)N)NC(=O)[C@H](CC(C)C)NC(=O)[C@@H](N)CCCNC(=N)N)C(N)=O)C(N)=O` [CCS-19 dimer, ((RL)2KRLC)2] (I: H-RLK([Leu-Arg])RLC-NH2 / II: H-RLK([Leu-Arg])RLC-NH2; disulfide I:6-II:6; N-terminus assumed) and `CC(C)C[C@H](NC(=O)[C@H](CCCCN)NC(=O)[C@H](CCCCNC(=O)[C@H](CC(C)C)NC(=O)[C@H](CCCCN)NC(=O)[C@H](CCCCNC(=O)[C@H](CC(C)C)NC(=O)[C@@H](N)CCCCN)NC(=O)[C@H](CC(C)C)NC(=O)[C@@H](N)CCCCN)NC(=O)[C@H](CC(C)C)NC(=O)[C@H](CCCCN)NC(=O)[C@H](CCCCNC(=O)[C@H](CC(C)C)NC(=O)[C@@H](N)CCCCN)NC(=O)[C@H](CC(C)C)NC(=O)[C@@H](N)CCCCN)C(N)=O` [MSt-146, (KL)4(KKL)2(KKL)] (I: H-KLK([Leu-Lys])KLKKL-NH2 / II: H-KLK([Leu-Lys])KL; amide I:6-II:C) are within 1.5-fold of each other in “MIC P. aeruginosa PAO1” value: 5 µg/mL (≈ 2.37 µM) for the first, 7 µg/mL (≈ 3.35 µM) for the second.

Compared with `CC(C)C[C@H](NC(=O)[C@H](CCCCN)NC(=O)[C@H](CC(C)C)NC(=O)[C@H](CCCCNC(=O)[C@H](CC(C)C)NC(=O)[C@H](CCCCN)NC(=O)[C@H](CC(C)C)NC(=O)[C@H](CCCCNC(=O)[C@H](CC(C)C)NC(=O)[C@H](CCCCN)NC(=O)[C@@H](N)CC(C)C)NC(=O)[C@H](CC(C)C)NC(=O)[C@H](CCCCN)NC(=O)[C@@H](N)CC(C)C)NC(=O)[C@H](CC(C)C)NC(=O)[C@H](CCCCN)NC(=O)[C@H](CC(C)C)NC(=O)[C@H](CCCCNC(=O)[C@H](CC(C)C)NC(=O)[C@H](CCCCN)NC(=O)[C@@H](N)CC(C)C)NC(=O)[C@H](CC(C)C)NC(=O)[C@H](CCCCN)NC(=O)[C@@H](N)CC(C)C)C(N)=O` [MIS-04, (LKL)4(KLKL)2(KLKL)] (I: H-LKLK([Leu-Lys-Leu])LKLKLKL-NH2 / II: H-LKLK([Leu-Lys-Leu])LKL; amide I:8-II:C), `CC(C)C[C@H](NC(=O)[C@H](CCCCNC(=O)[C@H](CCCCN)NC(=O)[C@H](CCCCNC(=O)[C@@H](N)CC(C)C)NC(=O)[C@@H](N)CC(C)C)NC(=O)[C@H](CCCCN)NC(=O)[C@H](CCCCNC(=O)[C@@H](N)CC(C)C)NC(=O)[C@@H](N)CC(C)C)C(=O)NCCCC[C@H](NC(=O)[C@H](CC(C)C)NC(=O)[C@H](CCCCNC(=O)[C@H](CCCCN)NC(=O)[C@H](CCCCNC(=O)[C@@H](N)CC(C)C)NC(=O)[C@@H](N)CC(C)C)NC(=O)[C@H](CCCCN)NC(=O)[C@H](CCCCNC(=O)[C@@H](N)CC(C)C)NC(=O)[C@@H](N)CC(C)C)C(=O)N[C@@H](CCCCN)C(N)=O` [MSt-147, (L)8(KK)4(KL)2(KK)] (I: H-LK(Leu)KK([Lys-LeuLys(Leu)])LKK-NH2 / II: H-LK(Leu)KK([Lys-LeuLys(Leu)])L; amide I:6-II:C) is 6-fold higher in “MIC P. aeruginosa PAO1” value: 2 µg/mL (≈ 0.694 µM) for the first, 12 µg/mL (≈ 4.47 µM) for the second.

First: CC(C)C[C@H](NC(=O)[C@H](CC(C)C)NC(=O)[C@H](CCCCN)NC(=O)[C@H](CCCCNC(=O)[C@H](CC(C)C)NC(=O)[C@H](CCCCN)NC(=O)[C@H](CC(C)C)NC(=O)[C@H](CCCCNC(=O)[C@H](CC(C)C)NC(=O)[C@H](CCCCN)NC(=O)[C@H](CCCCNC(=O)[C@H](CC(C)C)NC(=O)[C@@H](N)CCCCN)NC(=O)[C@H](CC(C)C)NC(=O)[C@@H](N)CCCCN)NC(=O)[C@H](CC(C)C)NC(=O)[C@H](CCCCN)NC(=O)[C@H](CCCCNC(=O)[C@H](CC(C)C)NC(=O)[C@@H](N)CCCCN)NC(=O)[C@H](CC(C)C)NC(=O)[C@@H](N)CCCCN)NC(=O)[C@H](CC(C)C)NC(=O)[C@H](CCCCN)NC(=O)[C@H](CC(C)C)NC(=O)[C@H](CCCCNC(=O)[C@H](CC(C)C)NC(=O)[C@H](CCCCN)NC(=O)[C@H](CCCCNC(=O)[C@H](CC(C)C)NC(=O)[C@@H](N)CCCCN)NC(=O)[C@H](CC(C)C)NC(=O)[C@@H](N)CCCCN)NC(=O)[C@H](CC(C)C)NC(=O)[C@H](CCCCN)NC(=O)[C@H](CCCCNC(=O)[C@H](CC(C)C)NC(=O)[C@@H](N)CCCCN)NC(=O)[C@H](CC(C)C)NC(=O)[C@@H](N)CCCCN)C(N)=O [YGO-009, (KL)8(KKL)4(KLKL)2(KKLL)] (I: H-KLK([Leu-Lys])KLKLKLKKLL-NH2 / II: H-KLK([Leu-Lys])KLKLKL / III: H-KLK([Leu-Lys])KL / IV: H-KLK([Leu-Lys])KL; amide I:6-IV:C, I:10-II:C, II:6-III:C)
Second: CC(C)C[C@H](NC(=O)[C@H](CCCCN)NC(=O)[C@H](CC(C)C)NC(=O)[C@H](CCCCNC(=O)[C@H](CC(C)C)NC(=O)[C@H](CCCCN)NC(=O)[C@H](CCCCNC(=O)[C@H](CC(C)C)NC(=O)[C@@H](N)CCCCN)NC(=O)[C@H](CC(C)C)NC(=O)[C@@H](N)CCCCN)NC(=O)[C@H](CC(C)C)NC(=O)[C@H](CCCCN)NC(=O)[C@H](CCCCNC(=O)[C@H](CC(C)C)NC(=O)[C@@H](N)CCCCN)NC(=O)[C@H](CC(C)C)NC(=O)[C@@H](N)CCCCN)C(=O)NCCCC[C@H](NC(=O)[C@H](CC(C)C)NC(=O)[C@H](CCCCN)NC(=O)[C@H](CC(C)C)NC(=O)[C@H](CCCCNC(=O)[C@H](CC(C)C)NC(=O)[C@H](CCCCN)NC(=O)[C@H](CCCCNC(=O)[C@H](CC(C)C)NC(=O)[C@@H](N)CCCCN)NC(=O)[C@H](CC(C)C)NC(=O)[C@@H](N)CCCCN)NC(=O)[C@H](CC(C)C)NC(=O)[C@H](CCCCN)NC(=O)[C@H](CCCCNC(=O)[C@H](CC(C)C)NC(=O)[C@@H](N)CCCCN)NC(=O)[C@H](CC(C)C)NC(=O)[C@@H](N)CCCCN)C(=O)N[C@@H](CCCCN)C(=O)N[C@@H](CC(C)C)C(=O)N[C@@H](CCCCN)C(N)=O [YGO-010, (KL)8(KKL)4(KLKL)2(KKLK)] (I: H-KLK([Leu-Lys])KLKLKLKKLK-NH2 / II: H-KLK([Leu-Lys])KLKLKL / III: H-KLK([Leu-Lys])KL / IV: H-KLK([Leu-Lys])KL; amide I:6-IV:C, I:10-II:C, II:6-III:C)
The “MIC P. aeruginosa PAO1” value of the first is 1.5-fold lower: 2 µg/mL (≈ 0.41 µM) for the first, 3 µg/mL (≈ 0.614 µM) for the second.
